Series [1] concerns hyperoxia (95% oxygen and 5% CO2). Nature of the series: Hyperoxia-inhibiting effect. The format is in vivo, rats. The protocol:
CFY rats with an average body weight of 250 g each, belonging to both sexes were kept in an atmosphere of 95% oxygen and 5% CO2. Three treatment groups were formed.
Group 2 (n=25): Hyperoxia was induced as described for Group 1, however, 20 mg/kg body weight/day i.v. Dexamethasone (steroid hormone preparation) was administered during the hyperoxia period. […] Autopsy and histological examinations were performed on the animals died and on the animals sacrificed on the 35th day.
Group 3 (n=25): Hyperoxia was induced as in the Groups mentioned above, but during the period of hyperoxia 65 mg/kg body weight of the compound according to Example 4 was administered i.v. The rate of death amounted to 4% (1 animal).

Series [2] deals with TXB2 formation in human leukocyte homogenate. Description: TXB2 formation from arachidonic acid in human leukocyte homogenate (RIA). Format: biochemical. Conditions: DMSO control 1.95 ± 0.31. The protocol:
The transformation of arachidonic acid to thromboxane B2 and leukotriene B4 in a human leukocyte homogenate was measured by means of the method published by Tetason, J. E. et al., Brit. J. Pharmacol., 1988 94:528-529, as follows: Fresh blood, from donors who had not ingested aspirin or other drugs for at least 14 days previously, was collected, with EDTA (1.2 mgml^-1) as anticoagulant; erythrocytes were sedimented by addition of 2% methyl cellulose (7.5 ml 100^-1 blood) and incubation for 40 minutes at 37° C. The supernatant containing leukocytes and platelets was removed, diluted two fold with sodium phosphate-buffered saline (0.9% NaCl, pH 7.2, 20 mM phosphate) and centrifuged for 10 minutes at 150 g. The supernatant, containing platelets, was removed and the leukocyte pellet resuspended in 50 ml of ice-cold 0.82% NH4 Cl containing 5 mM KCl (brought to pH 7.4 with 4.4% NaHCO3). This procedure lysed any remaining erythrocytes during 10 minutes incubation on ice. The leukocyte suspension was then centrifuged again (10 minutes, 150 g) and the pellet resuspended in 25 ml sodium phosphate buffer (50 mM, pH 7.0) containing EDTA (1 mM). […]
DMSO was added. […] Reaction products, TXB2 and LTB4, were measured by specific radioimmunoassay (RIA) as published by Salmon, J. A. Prostaglandins, 1978 15: 383-397; and Salmon, J. A. et al., Prostaglandins, 1982, 24:225-235. […]

A further series relates to Erlich ascites tumor. Description: Tumor-inhibiting effect on the Erlich ascites tumor. The format is in vivo, mice. On the procedure: A daily oral dose of 150 mg/kg of body-weight of the compound prepared in Example 1 was administered to LATI-inbred CFLP male mice weighing 20 to 22 g each for 5 days, then 2×10^6 of Erlich ascites tumour cells were implanted under sterile conditions. Thereafter, the drug-treatment was continued and an examination was carried out on the 16th day following the implantation. An 80% inhibition was observed on the 17th day. The percentage of inhabitation was determined as described by Zs. Pollak in the dissertation entitled "Development of a Radiosensitizing Antioxidant and Use Thereof in the Oncological Practice" pages 44 to 45 and 76 to 82, as cited above.

The subject of a further series is gastric mucosa. Description: Protection of the gastric mucosa against ethanol. Conditions: anhydrous ethanol + 100 mg/kg by gastric tube; ethanol only 21±0.31%. The format is in vivo, rats. The protocol: The protection of the gastric mucosa against the effect of ethanol was investigated. Ten CFY male rats weighing 200 to 220 g each were starved for 18 hours while allowing them to consume water ad libitum. Then, a dose of 50 or 100 mg/kg of body weight of the compound prepared in Example 1 was administered in such a way that the active agent had previously homogenized in an 1% aqueous methylcellulose solution for 1 minute. The substance was administered through a gastric tube. After 30 minutes, 1 ml of anhydrous ethanol each was orally given to the animals. Five minutes later the animals were decapitated under a general anaesthesia, their stomachs were removed, opened along the large curvature and washed with water. Thereafter the stomachs were stretched out and photographed. The alterations found on the gastric mucosa were observed by planimetry. The lesions were given as percentage of the whole surface.

Series [3] is described as follows: Acute toxicity study and determination of LD50. The format is in vivo. To be noted: rat, in vivo; oral, Wistar rats of both sexes. On the procedure:
(§1) The Example was carried out in Wistar rats (Lati, Budapest) of both sexes weighing 150-160 g each. Doses of L90 were measured by an analytical balance, for each animal and suspended in 2 ml of paraffine oil while mixing at 60° C. Suspension was then cooled to room temperature and administered through a gastric tube. Animals were fed with standard rat feed (Lati, Budapest) and received water ad libitum. They were kept at a room temperature of 23 to 25° C. The relative humidity of room air amounted to 50-70 percent. Three study groups of animals were formed.
(§2) The animals received a single dose of L90 amounting to 1 g/kg body weight.
(§3) The animals received a single dose of L90 amounting to 5 g/kg body weight.
(§4) The animals received a single dose of 2 ml of paraffine oil (control group).
(§5) Animals were carefully observed on 10 subsequent days, after treatment. On day 11, the animals were sacrificed in general anesthesia. Autopsy of all animals was performed followed by the macroscopic examination of all organs.

The next series relates to Wistar rats. Description: Acute toxicity study and determination of LD50. Format: in vivo. On the procedure:
as §1, §2, §3, §4, §5

The test system of another series is cytochrome C and P 450. Description: Cytochrome C and P450 activities in atherogenic-diet rats. The format is in vivo. Conditions: atherosclerosis induced by atherogenic diet in rats. From the text: During model-experiments of atherosclerosis induced by atherogenic diet in rats, the pathologic increase of cythochrome C and P 450 enzyme activities is to be observed. This is disadvantageous because these enhanced enzyme activities induce tissular lipid peroxidation, involving all of its well known untoward consequences. As the first step of this chain reaction superoxyde - anion radical is formed from molecular oxygen. Laitar however initiate further few radical reactions.

For series [4], the system named is extrinsic bronchial asthma. Nature of the series: Investigation of MTDQ in vivo in steroid-dependent asthma patients. Details: species or system human. On the procedure:
Four women and two men (with an average age of 41 years); between 17 and 56 years participated in this study, who suffered from extrinsic bronchial asthma, and had earlier been treated with at least 20 mg/day of prednisolone (11,17,21-trihydroxypregn-4-ene-3,20-dione) or with an equivalent steroidal hormone since 2 to 15 years of age. During the experimental period, the patients were kept on the treatment commonly used for bronchial asthma, except steroidal hormones.
On admission, their respiratory function characteristics were as follows:
Their sputum became more dilute and easy to eliminate. On auscultation, a soft vesicular respiration was again observed over their lungs. The X-ray picture of the lungs was in agreement with the clinical improvement.
On the fifteenth day of treatment, the respiratory functions were as follows:
The experiment described in Example 10 was repeated, except that daily 300 mg of allopurinol (Milurit®, EGIS Pharmaceutical Works) were daily administered simultaneously with the start of the MTDQ administration. […] In the case of a prolonged treatment, the daily amount of MTDQ could be decreased from 2500 mg to 1000-1200 mg by using this combination.

Structures can show the parent of a compound that is named as a salt.

For `C[C@@H]1C[C@H]2[C@@H]3CCC4=CC(=O)C=C[C@]4(C)[C@@]3(F)[C@@H](O)C[C@]2(C)[C@@]1(O)C(=O)CO` [Dexamethasone], the Rate of survival entry in series [1] (20 mg/kg/day i.v. during hyperoxia) was “did not improve”. Besides, in series [1] (20 mg/kg/day i.v., compared to physiological parameters), the “PGF1C and TXB2 concentrations” value is “significantly lower”. Besides, the “Pathological lesions at autopsy and histology” value in series [1] (20 mg/kg/day i.v., compared with Group 1) was “number and severity of the pathological lesions were found less than in Group 1”.
A word on the LD50: it is the dose at which mortality reaches 50%. Read a high LD50 as a less toxic substance. Consider `CC(=O)C(c1ccc2c(c1)C(C)=CC(C)(C)N2)c1ccc2c(c1)C(C)=CC(C)(C)N2` [Example 1, 6,6'-acetylmethine-bis(2,2,4-trimethyl-1,2-dihydroquinoline)], for which the results for the TXB2 in series [2] (20/μM compound) and in series [2] (100/μM compound) were 0.68 ± 0.14 and 0.53 ± 0.08, respectively. Also, the Tumor inhibition in the series with Erlich ascites tumor (150 mg/kg oral daily, CFLP male mice, 17th day) came out at 80%. For the same compound, the Ascites ml. in the series with Erlich ascites tumor (150 mg/kg, control 15.06 + 2.85) is recorded as 3.95 + 0.62 ml. The same compound displayed a number of cells with Erlich ascites tumor (150 mg/kg, control 96.5 × 10^7 /ml) of 7.33e+07 mL⁻¹. Also, the “Gastric mucosa lesions as percentage of the whole surface” value in the series on gastric mucosa is 4.2±0.51%. In addition, the LD50 at 240 h in series [3] is more than 5000 mg/kg. Besides, the Survival and observations entry in the series with Wistar rats (single oral dose 1 g/kg, day 11) was “all rats were alive”. For the same compound, in the series with Wistar rats (single oral dose 5 g/kg, n=8, 10 days of observation), the Mortality result is “Two rats belonging to Group 2 died on day 8”.
On to `CC1(C)C=C(CS(=O)(=O)O)c2ccccc2N1` [2,2-dimethyl-4-methane-sulfonic acid salt-1,2-dihydroquinoline], for which the “Normalization of increased Cytochrome C and P450 activities” value in the series with cytochrome C and P 450 was “did not exert this effect either”.
`CC1=CC(C)(C)Nc2ccc(Cc3ccc4c(c3)C(C)=CC(C)(C)N4)cc21` [MTDQ, 6,6'-methylene-bis(2,2,4-trimethyl-1,2-dihydroquinoline)]: the “Omission of steroidal hormone” value in series [4] (MTDQ combined with 300 mg allopurinol daily) is given as “the steroidal hormone could immediately be omitted”. Also, the “Daily amount of MTDQ needed in prolonged treatment” value in series [4] (combined with 300 mg allopurinol daily, decreased from 2500 mg) is 1000 to 1200 mg. Besides, the “Partial oxygen pressure in the arterial blood” value in series [4] (fifteenth day of treatment, MTDQ 25 mg/kg orally daily, steroid stopped on day 4) is reported as 10.9±0.45 kPa. Moreover, the Forced expiratory volume in series [4] (fifteenth day of treatment, MTDQ 25 mg/kg orally daily, normal value 2.5 to 2.8) was determined as 2.06 ± 0.8 L. In addition, in series [4] (fifteenth day of treatment, MTDQ 25 mg/kg orally daily, normal value 3.5 to 4), the Forced vital capacity was 3.78 ± 0.33 L. For the same compound, in series [4] (fifth day, MTDQ 25 mg/kg orally daily), the Clinical improvement result is given as “the patients became attack-free”.
Turning to `CC(=O)C(c1ccc2c(c1)C(CS(=O)(=O)O)=CC(C)(C)N2)c1ccc2c(c1)C(CS(=O)(=O)O)=CC(C)(C)N2` [Example 4, sodium salt of 6,6'-acetylmethine-bis(2,2-dimethyl-1,2-dihydroquinoline-4-methanesulfonicacid)], the Rate of death in series [1] (65 mg/kg i.v. during hyperoxia, untreated 50% died) was determined as 4%. The “Pathological lesions at autopsy and histology” value in series [1] (65 mg/kg i.v., animals sacrificed on 35th day) is “no pathological lesions were detected”.
Take `O=C1O[C@H]([C@@H](O)CO)C(O)=C1O` [Vitamin C]: the “Normalization of increased Cytochrome C and P450 activities” value in the series on cytochrome C and P 450 is “did not exert this effects”.
Regarding `CC(C)(S)[C@@H](N)C(=O)O` [D-Pencillamino], the “Normalization of increased Cytochrome C and P450 activities” value in the series with cytochrome C and P 450 is “did not exert this effects”.
As for Vitamin A, in the series with cytochrome C and P 450, the “Normalization of increased Cytochrome C and P450 activities” value is recorded as “did not exert this effects”.
Turning to `Oc1cc(O)c2c(c1)O[C@H](c1ccc(O)c(O)c1)[C@@H](O)C2` [(+) --Cyanidol], the “Normalization of increased Cytochrome C and P450 activities” value in the series with cytochrome C and P 450 is reported as “did not exert this effects”.
As for `NC(=O)c1nc[nH]c1N` [4-amino-5-imidozolcarboxidamide], the “Normalization of increased Cytochrome C and P450 activities” value in the series on cytochrome C and P 450 is given as “did not exert this effects”.
Same read-out and setting: as for `CC1=CC(C)(C)Nc2ccccc21` [2,2,4-trimethyl-1,2-dihydroquinoline], the entry is “did not exert this effect either”.
